Laboratory results reported in US7625894B2, “Pyrrolo[2,3-d]Pyrimidines as Protein Tyrosine Kinase Inhibitors” (Novartis AG, priority 2004, dated 2009).

These molecules were tested against T1, c-Raf-1 (Homo sapiens, UniProt P04049) (assay: c-Raf-1 protein kinase assay).
T1 construct: made in house; host or cells: Sf21 insect cells, triple baculovirus infection (GST-c-Raf-1, v-Ras, v-Src)
Assay type: biochemical
Design: dose or concentration left out as unconfirmed
Procedure: c-Raf-1 protein kinase assay: Recombinant c-Raf-1 protein is obtained by triple infection of Sf21 cells with GST-c-Raf-1 recombinant baculovirus together with v-Src and v-Ras recombinant baculoviruses that are required for active c-Raf-1 kinase production (Williams et al., PNAS 1992; 89:2922-6). Active Ras (v-Ras) is required to recruit c-Raf-1 to the cell membrane and v-Src to phosphorylate c-Raf-1 to fully activate it. Cells are seeded at 2.5×10^7 cells per 150 mm dish and allowed to attach to a 150 mm dish for 1 hr at RT. Media (SF900II containing 10% FBS) is aspirated and recombinant baculovirus GST-c-Raf-1, v-Ras and v-Src are added at MOI of 3.0, 2.5 and 2.5, respectively, in a total volume of 4-5 mL. Cells are incubated for 1 hr at RT and then 15 mL of medium is added. Infected cells are incubated for 48-72 hr at 27° C. Infected Sf21 cells are scraped and collected into a 50 mL tube and centrifuged for 10 min at 4° C. at 1100 g in a Sorvall centrifuge. The cell pellet is washed once with ice cold PBS and lysed with 0.6 mL lysis buffer per 2.5×10^7 cells. Complete lysis of cells is achieved after 10 min on ice with occasional pipetting. The cell lysates are centrifuged for 10 min at 4° C. at 14,500 g in a Sorvall centrifuge with SS-34 rotor and the supernatant is transferred to a fresh tube and stored at −80° C. c-Raf-1 is purified from cell lysates using 100 μL of packed glutathione-sepharose 4B beads equilibrated in ice cold PBS per 2.5×10^7 cells. GST-c-Raf-1 is allowed to bind to the beads at 4° C. for 1 hr with rocking. Bound GST-c-Raf-1 with beads is transferred to a column. The column is washed once with lysis buffer and twice with ice cold Tris buffered saline. Ice cold elution buffer is added and column flow is stopped to allow the free glutathione to disrupt the interaction of GST-c-Raf-1 with glutathione sepharose beads. Fractions (1 mL) are collected into pre-chilled tubes. Each tube contains 10% glycerol (final concentration) to maintain kinase activity during freeze thaw cycles. Purified fractions of GST-c-Raf-1 kinase protein are stored at −80° C.
IκB is used as substrate for the c-Raf-1 kinase. IκB is expressed in bacteria as a His-tagged protein BL21. LysS bacteria containing the IκB plasmid are grown to an OD600 of 0.6 in LB medium, then induced to express the IκB with IPTG (final concentration of 1 mM) for 3 hrs at 37° C. and then bacteria are lysed by sonication (microtip limit setting for 3 times at 1 min each in sonication buffer [50 mM Tris pH 8.0, 1 mM DTT, 1 mM EDTA] and centrifuged at 10,000 g for 15 min. The supernatant is mixed with ammonium sulfate to give a final concentration of 30%. This mixture is rocked for 15 min at 4 C then spun at 10,000 g for 15 min. The pellet is resuspended in binding buffer (Novagen) containing 10 mM BSA. This solution is applied to Ni-agarose (Novagen) and washed according to the Novagen manual. IκB is eluted from the column using elution buffer (0.4 M imidazole, 0.2 M NaCl, 8 mM Tris pH 7.9). Fractions containing protein are dialysed in 50 mM Tris pH 8, 1 mM DTT. The activity of c-Raf-1 protein kinase is assayed in the presence or absence of inhibitors, by measuring the incorporation of ^33P from [γ^33P] ATP into IκB. The assay is carried out in 96-well plates at ambient temperature for 60 min. It contains (total volume of 30 μL): c-Raf-1 kinase (400 ng), 25 mM Tris.HCl, pH 7.5, 5 mM MgCl2, 5 mM MnCl2, 10 μM Na3VO4, 1 mM DTT and 0.3 μCi/assay [γ^33P]-ATP (10 μM ATP) using 600 ng IκB in the presence of 1% DMSO. Reactions are terminated by adding 10 μL of 250 mM EDTA and 30 μL of the reaction mixture is transferred onto Immobilon-PVDF membrane (Millipore, Bedford, Mass., USA) previously soaked for 5 min with methanol, rinsed with water, then soaked for 5 min with 0.5% H3PO4 and mounted on vacuum manifold with disconnected vacuum source. After spotting all samples, vacuum is connected and each well rinsed with 200 μL 0.5% H3PO4. […]

| Molecule | c-Raf-1/ %-inh. [%] |
| --- | --- |
| CCCNc1ncnc2[nH]c(-c3ccc(C(=O)N4CCN(C)CC4)cc3)cc12 [Example 17, (4-Methyl-piperazin-1-yl)-[4-(4-propylamino-7H-pyrrolo[2,3-d]pyrimidin-6-yl)-phenyl]-methanone] | 100% |
| CN1CCN(C(=O)c2ccc(-c3cc4c(NCCCO)ncnc4[nH]3)cc2)CC1 [Example 15, {4-[4-(3-Hydroxy-propylamino)-7H-pyrrolo[2,3-d]pyrimidin-6-yl]-phenyl}-(4-methyl-piperazin-1-yl)-methanone] | 64% |
| CN1CCN(C(=O)c2ccc(-c3cc4c(N(C)C)ncnc4[nH]3)cc2)CC1 [Example 3, [4-(4-Dimethylamino-7H-pyrrolo[2,3-d]pyrimidin-6-yl)-phenyl]-(4-methyl-piperazin-1-yl)-methanone] | 51% |
| CN1CCN(Cc2ccc(-c3cc4c(N(C)C)ncnc4[nH]3)cc2)CC1 [Example 4, Dimethyl-{6-[4-(4-methyl-piperazin-1-ylmethyl)-phenyl]-7H-pyrrolo[2,3-d]pyrimidin-4-yl}-amine] | 40% |
| CCCN(C)c1ncnc2[nH]c(-c3ccc(CN4CCN(C)CC4)cc3)cc12 [Example 19, Methyl-{6-[4-(4-methyl-piperazin-1-ylmethyl)-phenyl]-7H-pyrrolo[2,3-d]pyrimidin-4-yl}-propyl-amine] | 100% |
| CN(C)c1ncnc2[nH]c(-c3ccc(C(=O)N4CCOCC4)cc3)cc12 [Example 6, [4-(4-Dimethylamino-7H-pyrrolo[2,3-d]pyrimidin-6-yl)-phenyl]-morpholin-4-yl-methanone] | 63% |
| CN(C)c1ncnc2[nH]c(-c3ccc(Cn4ccnc4)cc3)cc12 [Example 24, [6-(4-Imidazol-1-ylmethyl-phenyl)-7H-pyrrolo[2,3-d]pyrimidin-4-yl]-dimethylamine] | 100% |
| CNc1ncnc2[nH]c(-c3ccc(CN4CCN(C)CC4)cc3)cc12 [Example 16, Methyl-{6-[4-(4-methyl-piperazin-1-ylmethyl)-phenyl]-7H-pyrrolo[2,3-d]pyrimidin-4-yl}-amine] | 67% |
| CCCNc1ncnc2[nH]c(-c3ccc(CN4CCN(C)CC4)cc3)cc12 [Example 18, {6-[4-(4-Methyl-piperazin-1-ylmethyl)-phenyl]-7H-pyrrolo[2,3-d]pyrimidin-4-yl}-propyl-amine] | 100% |
| [4-(4-Methylamino-7H-pyrrolo[2,3-d]pyrimidin-6-yl)-phenyl]-morpholin-4-yl-methanone [Example 2] | 56% |
| CCN(CC)CCCNC(=O)c1ccc(-c2cc3c(N(C)C)ncnc3[nH]2)cc1 [Example 5, N-(3-Diethylamino-propyl)-4-(4-dimethylamino-7H-pyrrolo[2,3-d]pyrimidin-6-yl)-benzamide] | 48% |
| CNc1ncnc2[nH]c(-c3ccc(C(=O)N4CCN(C)CC4)cc3)cc12 [Example 12, [4-(4-Methylamino-7H-pyrrolo[2,3-d]pyrimidin-6-yl)-phenyl]-(4-methyl-piperazin-1-yl)-methanone] | 22% |

Second part, the molecule after the results:

| c-Raf-1/ %-inh. [%] | Molecule |
| --- | --- |
| 80% | CN(C)c1ncnc2[nH]c(-c3ccc(CNCCCO)cc3)cc12 [Example 28, 3-[4-(4-Dimethylamino-7H-pyrrolo[2,3-d]pyrimidin-6-yl)-benzylamino]-propan-1-ol] |
| 50% | CN(C)c1ncnc2[nH]c(-c3ccc(C(C)(C)O)cc3)cc12 [Example 34, 2-[4-(4-Dimethylamino-7H-pyrrolo[2,3-d]pyrimidin-6-yl)-phenyl]-propan-2-ol] |
| 44% | CNc1ncnc2[nH]c(-c3ccc(C(C)(C)O)cc3)cc12 [Example 35, 2-[4-(4-Methylamino-7H-pyrrolo[2,3-d]pyrimidin-6-yl)-phenyl]-propan-2-ol] |
| 96% | CN(C)c1ncnc2[nH]c(-c3ccc(Cc4ccc[nH]4)cc3)cc12 [Example 25, Dimethyl-{6-[4-(1H-pyrrol-2-ylmethyl)-phenyl]-7H-pyrrolo[2,3-d]pyrimidin-4-yl}-amine] |
| 77% | COCCN(C)Cc1ccc(-c2cc3c(N(C)C)ncnc3[nH]2)cc1 [Example 29, [6-(4-{[(2-Methoxy-ethyl)-methyl-amino]-methyl}-phenyl)-7H-pyrrolo[2,3-d]pyrimidin-4-yl]-dimethyl-amine] |
| 100% | CN(C)c1ncnc2[nH]c(-c3ccc(Cn4cnnn4)cc3)cc12 [Example 27, Dimethyl-[6-(4-tetrazol-1-ylmethyl-phenyl)-7H-pyrrolo[2,3-d]pyrimidin-4-yl]-amine] |
| 48% | CCC(O)(CC)c1ccc(-c2cc3c(NCCCn4cccc4)ncnc3[nH]2)cc1 [Example 33, 3-{4-[4-(3-Pyrrol-1-yl-propylamino)-7H-pyrrolo[2,3-d]pyrimidin-6-yl]-phenyl}-pentan-3-ol] |
